The results in this text go back to ChEMBL document CHEMBL1139872, “A high-throughput screen for aggregation-based inhibition in a large compound library” (J Med Chem, 2007).

Assay [1] deals with T1, Beta-lactamase (Escherichia coli K-12, UniProt P00811).
Description: Aggregate based-inhibition of Escherichia coli AmpC beta lactamase using stringent assay conditions in presence of 0.01% Triton X-100 detergent
The target in assay [2] is T1, Beta-lactamase. Briefly: Inhibition of Escherichia coli AmpC beta lactamase using relaxed assay conditions in presence of 0.00001% Triton X-100 detergent.

Structures are written as SMILES.

T1 sequence (P00811 whole entry): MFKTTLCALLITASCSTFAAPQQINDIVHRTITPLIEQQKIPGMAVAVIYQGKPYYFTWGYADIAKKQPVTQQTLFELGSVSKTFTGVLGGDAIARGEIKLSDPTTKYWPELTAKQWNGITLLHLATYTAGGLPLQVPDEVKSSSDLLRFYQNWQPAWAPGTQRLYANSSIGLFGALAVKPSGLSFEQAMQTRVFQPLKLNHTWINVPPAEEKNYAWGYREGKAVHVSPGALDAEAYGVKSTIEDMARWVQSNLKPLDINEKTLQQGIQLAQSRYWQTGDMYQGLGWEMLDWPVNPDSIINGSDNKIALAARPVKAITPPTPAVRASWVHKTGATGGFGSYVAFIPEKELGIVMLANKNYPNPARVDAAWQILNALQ

Usually IC50 stands for the concentration that inhibits the measured activity by half. As to `O=C(Nc1ccc(Oc2ccc(NC(=O)c3ccco3)c(NC(=O)c3ccco3)c2)cc1)c1ccco1`, the results for the IC50 in assay [1] and in assay [2] were 40 µM and 20 µM, respectively.

`Cc1ccc2nc(-c3ccccc3)cc(O)c2c1`: the IC50 in assay [1] and in assay [2] was > 100 µM in each case.

Take `Clc1ccc(CSC(Cn2ccnc2)c2ccc(Cl)cc2Cl)cc1` (stereo not given) [SULCONAZOLE]: the IC50 in assay [1] was determined as 100 µM; in assay [2] it was 20 µM.

On to `Fc1c(F)c(F)c(CSc2nc3ccccc3[nH]2)c(F)c1F`, for which the IC50 in assay [1] is > 300 µM; in assay [2], 130 µM.

For `O=c1[nH]c2cc(Cl)ccc2c(O)c1-c1cccc(Oc2ccccc2)c1`, the IC50 was found to be 126 µM in assay [1] and 22 µM in assay [2].

As for `O=C(Nc1cccc2ccccc12)c1ccc(Br)o1`, the IC50 was > 200 µM in assay [1] and 120 µM in assay [2].

As to `Cc1cccc(OCC(=O)Nc2cccc(-c3nnc(-c4ccccc4)o3)c2)c1C`, the IC50 was > 66 µM in assay [1] and 13 µM in assay [2].

Consider `Clc1ccccc1C(c1ccccc1)(c1ccccc1)n1ccnc1` [CLOTRIMAZOLE], for which the IC50 in assay [1] came to 150 µM; in assay [2], 35 µM.

`Cc1cc2c(C(C)C)c(O)c(O)c(C=O)c2c(O)c1-c1c(C)cc2c(C(C)C)c(O)c(O)c(C=O)c2c1O` [GOSSYPOL]: the values for the IC50 in assay [1] and in assay [2] were 82 µM and 46 µM, respectively.

For `COc1c(F)c(F)c(C(=O)Nc2ccc(NC(=O)c3ccco3)cc2)c(F)c1F`, the results for the IC50 in assay [1] and in assay [2] were > 66 µM and 20 µM, respectively.
